According to patent publication US20260102407A1, “TREATMENT METHODS” (priority 2020, published 2026):

Experiments:
HMEC-1 [1] = experiment: Endothelial network formation assay on Matrigel; assay type: cell-based, human; conditions: for endothelial network (tubule) formation on Matrigel: 3 μM, 1% FBS, 50 ng/ml FGF-2, 2, 4, 6 and 24 h
Protocol: Endothelial network formation assay. HMEC-1 (4×10^4 cells/well) in MCDB131 containing 1% FBS and compound (1 or 3 μM) or curcumin (1-40 μM) and 50 ng/ml FGF-2 were added to 96-well plates coated overnight at 4° C. with 100 μl of growth factor-reduced reconstituted basement membrane matrix (Matrigel, cat. 354230, Corning, NY). Network formation was observed over subsequent hours and photographed under 4× or 10× objective using an Olympus CKX41 microscope.

[2] = molecular target: T1, Recombinant human His-MEK1 (Homo sapiens, UniProt Q02750); experiment: SPR (Biacore T200) on immobilised His-MEK1; assay type: binding; conditions: 15° C.; 20 mM HEPES, 150 mM NaCl, 5% DMSO pH 7.4
T1 construct: purchased ThermoFisher Scientific PV3303
Protocol: (§1) SPR. SPR was performed on a Biacore T200. The active and reference flow cells of a Xantec NIHMC Ni sensor chip were conditioned with 0.5M NaEDTA followed by 5 mM NiCl2 in immobilisation buffer (20 mM HEPES, 150 mM NaCl, pH 7.4). Recombinant human His-MEK1 and His-MEK2 (500 nM, ThermoFisher Scientific, cat. PV3303 and PV3615, respectively) were injected for 15 min at 10 μl min^−1 over separate active flow cells. All immobilisation was carried out at 25° C. Following immobilisation, the temperature was lowered to 15° C., and the buffer changed to 20 mM HEPES, 150 mM NaCl, 5% DMSO pH 7.4. Samples of PD98059 (2.5-30 μM in running buffer) and BT2 (1.25-15 μM) were injected at a flow rate of 30 μl min^−1 over immobilised MEK1 and MEK2. Solvent correction was applied to the data using a DMSO standard curve. Data were analysed using the Biacore T200 Evaluation software. Prior to SPR, limits of compound solubility were determined using ^1H 1D NMR.

[3] = molecular target: T2, Recombinant human His-MEK2 (Homo sapiens, UniProt P36507); experiment: SPR (Biacore T200) on immobilised His-MEK2; assay type: binding; conditions: 15° C.; 20 mM HEPES, 150 mM NaCl, 5% DMSO pH 7.4
T2 construct: purchased ThermoFisher Scientific PV3615
Protocol: as §1

HMEC-1 [4] = experiment: Endothelial proliferation assay using the xCELLigence system; assay type: cell-based, human; conditions: HMEC-1, 5% FBS, 79 h; for serum-inducible endothelial proliferation (xCELLigence cell index): 0.2-1 μM
Protocol: Endothelial proliferation assay using the xCELLigence system. HMEC-1 proliferation was evaluated using the xCELLigence System (Roche, Castle Hill). Briefly, HMEC-1 (5×10^3 cells/well) were seeded in a 96-well E-plate and inserted into the xCELLigence RTCA station (Roche). Cells were serum-deprived for 24 h in MCDB131 medium which contained 10 ng/ml EGF (Sigma-Aldrich) and 1 μg/ml hydrocortisone (Sigma-Aldrich) then treated with compound (0.2-1 μM) in medium containing 5% FBS, 10 ng/ml EGF (Sigma-Aldrich) and 1 μg/ml hydrocortisone (Sigma-Aldrich). Cell growth was monitored automatically every 15 min by xCELLigence system. Cell index (CI) represents a quantitative measure of each well cell growth. In this system, CI a unitless parameter that reports impedance of electron flow caused by adherent cells.

[5] = Solubility on dilution in medium containing serum; assay type: physicochemical; conditions: dilution in medium containing serum
HMEC-1 [6] = experiment: Endothelial repair following in vitro injury (scratch assay); assay type: cell-based, human; conditions: 0.6 μM, 5% FBS, 48 h
Protocol: Endothelial repair following in vitro injury. HMEC-1 (90-100% confluency) in 6-well plates were washed with PBS, and treated with 0.6 μM compound in MCDB131 containing 5% FBS. A sterile pointed toothpick was used to scrape the cell monolayer and the wells photographed under 4× objective at 0 h and 48 h. Cell regrowth in the denuded zone was determined using Image-Pro Plus (Cybernetics, USA).

FosB/ΔFosB = experiment: Western blot, serum-inducible FosB/ΔFosB expression in HMEC-1; assay type: cell-based, human; conditions: 30 μM compound, 10% FBS 1 h
Protocol: (§2) Western blot analysis with extracts of cells treated with serum. HMEC-1 (80-90% confluency) were arrested in serum-free MCDB131 medium without EGF or hydrocortisone for 20 h. Cells were treated with 30 μM compound in serum-free MCDB131 medium for 4 h, and the medium was changed to complete medium (with 10% FBS with EGF and hydrocortisone) with 30 μM compound for 1 h. Total protein was harvested as previously described in radioimmunoprecipitation (RIPA) lysis buffer with protease inhibitors (Li, Y., et al., Int J Cardiol 220, 185-191 (2016)). Proteins were resolved on 4-20% (w/v) sodium dodecyl sulfate (SDS)-polyacrylamide gradient gels (Bio-Rad Mini-PROTEAN TGX) and transferred to Immobilon-P PVDF membranes (Millipore, USA). Membranes were blocked with 5% skim milk and incubated with rabbit monoclonal FosB (cat. 2251, 1:1000, Cell Signaling, USA), rabbit monoclonal c-Fos antibodies (cat. 2250, 1:1000, Cell Signaling, USA) at 4° C. overnight or mouse monoclonal […] antibodies (cat. A5316, 1:30000, Sigma-Aldrich) at 22° C. for 15 min then incubated with a horseradish peroxidase conjugated secondary goat anti-rabbit (cat. P0448, 1:1000, DAKO Cytomation, Denmark) or goat anti-mouse (cat. P0447, 1:1000, DAKO Cytomation, Denmark) antibodies for 1 h. Chemiluminescence was detected using the Western Lightning Chemiluminescence system (PerkinElmer, USA) and ImageQuant™ LAS 4000 biomolecular imager (GE Healthcare Life Sciences, USA). Band intensity in images generated with the LAS 4000 on automatic exposure with sensitivity/resolution setting high was quantified using NIH ImageJ.

c-Fos = experiment: Western blot, serum-inducible c-Fos expression in HMEC-1; assay type: cell-based, human; conditions: 30 μM compound, 10% FBS 1 h
Protocol: as §2

BAEC = experiment: Endothelial dual chamber migration assay toward VEGF-A165; assay type: cell-based, bovine; conditions: 1 μM; Transwell; 10% FBS and 50 ng/ml VEGF-A165 in lower chamber; 24 h
Protocol: Endothelial dual chamber migration assay. BAEC (6×10^3 cells/well) suspended in DMEM supplemented with 10% FBS were seeded into the upper chamber of 24-well plates fitted with Millicell cell culture inserts (cat. PI8P01250, Millipore). After 48 h, the medium was changed to DMEM supplemented with 0.01% FBS and the cells were incubated for 48 h. Compounds prepared in DMEM containing 0.01% FBS were added to the upper chamber. VEGF-A165 (50 ng/ml, Sigma, cat. V7259) in medium containing 10% FBS was added to the lower chamber. After 24 h, medium from the upper chamber was removed and a cotton swab was used to remove non-migrated cells and excess liquid. The insert was placed in 70% ethanol for 10 min to allow cell fixation and membranes were dried for 10-15 min. Filters were excised and placed on slides. Mounting medium (Fluoroshield™ with DAPI, Sigma, cat. 6057) was added and specimens were visualized using an EVOS FL microscope.

p-p38 = experiment: Western blot, IL-1β-inducible p-p38 in HMEC-1; assay type: cell-based, human; conditions: 1-30 μM
Protocol: (§3) Western blot analysis with extracts of cells treated with IL-13. HMEC-1 (80-90% confluency) were arrested in serum-free MCDB131 medium (Invitrogen, MD) without any growth factor for 48 h. Cells were treated with 30 μM compound in serum-free medium for 4 h, and incubated with 20 ng/ml IL-1β (Sigma, cat. SRE3083) in serum-free medium with the same concentration of compound for up to 4 h, unless otherwise indicated. Total protein was harvested as previously described using RIPA buffer with protease inhibitors. Proteins were resolved on 4-20% (w/v) SDS-polyacrylamide gradient gels and transferred to Immobilon-P PVDF membranes. […] Chemiluminescence was detected using the Western Lightning Chemiluminescence system and ImageQuant™ LAS 4000 biomolecular imager. Band intensity in images generated with the LAS 4000 using the same settings were quantified by NIH ImageJ.

p-SAPK/JNK = experiment: Western blot, IL-1β-inducible p-SAPK/JNK in HMEC-1; assay type: cell-based, human; conditions: 1-30 μM
Protocol: as §3

T2 sequence (P36507 whole entry): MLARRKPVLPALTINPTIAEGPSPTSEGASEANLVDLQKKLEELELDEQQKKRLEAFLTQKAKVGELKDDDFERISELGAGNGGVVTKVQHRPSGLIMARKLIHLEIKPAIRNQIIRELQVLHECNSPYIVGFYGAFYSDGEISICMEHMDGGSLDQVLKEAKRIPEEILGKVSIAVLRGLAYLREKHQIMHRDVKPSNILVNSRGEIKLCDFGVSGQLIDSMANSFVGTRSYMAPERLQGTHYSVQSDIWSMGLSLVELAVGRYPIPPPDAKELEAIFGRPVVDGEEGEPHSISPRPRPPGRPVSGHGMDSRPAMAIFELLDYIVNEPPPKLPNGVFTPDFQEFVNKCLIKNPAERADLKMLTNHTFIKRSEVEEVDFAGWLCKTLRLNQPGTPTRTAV
T1 sequence (Q02750 whole entry): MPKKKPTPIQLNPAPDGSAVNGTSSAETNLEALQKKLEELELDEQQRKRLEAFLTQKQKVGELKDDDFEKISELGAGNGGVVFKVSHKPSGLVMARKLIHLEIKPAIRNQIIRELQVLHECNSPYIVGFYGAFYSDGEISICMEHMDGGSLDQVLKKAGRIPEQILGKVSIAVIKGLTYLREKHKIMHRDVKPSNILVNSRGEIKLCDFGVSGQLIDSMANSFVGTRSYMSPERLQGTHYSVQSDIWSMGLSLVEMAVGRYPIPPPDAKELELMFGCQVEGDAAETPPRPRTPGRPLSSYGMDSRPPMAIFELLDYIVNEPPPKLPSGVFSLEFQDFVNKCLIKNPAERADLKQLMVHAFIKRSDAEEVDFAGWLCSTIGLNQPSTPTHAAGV

Row | binding to His-MEK1 (SPR) [2] | binding to His-MEK2 (SPR) [3] | SMILES | endothelial regrowth after mechanical injury in vitro (HMEC-1 [6]) | serum-inducible FosB/ΔFosB expression (Western blot) (FosB/ΔFosB) | migration of BAEC toward VEGF-A165 (BAEC) | serum-inducible endothelial proliferation (xCELLigence cell index) (HMEC-1 [4]) | also measured
1 | no appreciable binding | no appreciable binding | CCN1C(=O)c2cc(NC(=O)COC)ccc2Oc2ccccc21 [BT2-MeOA, N-(10-ethyl-11-oxo-10,11-dihydrodibenzo[b,f][1,4]oxazepin-2-yl)-2-methoxyacetamide] |  |  |  |  | inhibition of network formation on Matrigel (FIG. 5B) (HMEC-1 [1]; 1 μM): Neither BT2-MeOA nor any other BT2 analogue had the ability to inhibit; inhibition of serum-inducible proliferation compared with BT2 (HMEC-1 [4]; 0.4 or 0.8 μM): Neither BT2-MeOA nor any other BT2 analogue had the ability to inhibit; solubility relative to BT2 and analogues [5]: greater solubility than BT2
2 | no appreciable binding | no appreciable binding | CCCN1C(=O)c2cc(NC(=O)OCC)ccc2Oc2ccccc21 [BT2-Pr, ethyl (11-oxo-10-propyl-10,11-dihydrodibenzo[b,f][1,4]oxazepin-2-yl)carbamate] |  |  |  |  | 
3 |  |  | COCCOC(=O)NC(=O)Nc1ccc(C(=NO)c2ccc(Cl)cc2)cc1 [Compound T4] | blocked this reparative response | inhibited less potently | inhibited migration | inhibited serum-inducible proliferation at concentrations in a dose-dependent manner | endothelial network (tubule) formation on Matrigel (HMEC-1 [1]): inhibited network formation; serum-inducible c-Fos expression (Western blot) (c-Fos): inhibit
4 |  |  | COC(=O)Nc1nc2ccc(C(=O)c3ccc(F)cc3)cc2[nH]1 [Compound T6, Flubendazole, reference compound] | blocked this reparative response | inhibited less potently | inhibited migration | inhibited serum-inducible proliferation at concentrations in a dose-dependent manner | endothelial network (tubule) formation on Matrigel (HMEC-1 [1]): inhibited network formation; serum-inducible c-Fos expression (Western blot) (c-Fos): inhibit
5 |  |  | Nc1ccc(C(=O)c2ccc(F)cc2)cc1 [Compound T7, (4-aminophenyl)(4-fluorophenyl)methanone] | no such effect | no inhibition |  | no inhibitory effect | 
6 |  |  | COc1cc(/C=C/C(=O)CC(=O)/C=C/c2ccc(O)c(OC)c2)ccc1O [curcumin, reference compound] |  |  |  |  | endothelial network formation (HMEC-1 [1]; 1 μM, after 4 h): no inhibition; inhibition at 30 µM (HMEC-1 [1]; Homo sapiens, 30 μM, after 4 h): ~25%; inhibition at 40 µM (HMEC-1 [1]; Homo sapiens, 40 μM, after 4 h): ~50%
7 |  |  | Cc1ccc(NC(=O)c2ccc(CN3CCN(C)CC3)cc2)cc1Nc1nccc(-c2cccnc2)n1 [imatinib] |  |  | neither BT3, nor PD98059 (allosteric MEK inhibitor), imatinib (tyrosine kinase inhibitor) or tofacitinib (Janus kinase inhibitor) had an inhibitory effect |  | 
8 |  |  | C[C@@H]1CCN(C(=O)CC#N)C[C@@H]1N(C)c1ncnc2[nH]ccc12 [tofacitinib] |  |  | neither BT3, nor PD98059 (allosteric MEK inhibitor), imatinib (tyrosine kinase inhibitor) or tofacitinib (Janus kinase inhibitor) had an inhibitory effect |  | 

Row | SMILES | binding to His-MEK1 (SPR) [2] | binding to His-MEK2 (SPR) [3] | endothelial regrowth after mechanical injury in vitro (HMEC-1 [6]) | serum-inducible FosB/ΔFosB expression (Western blot) (FosB/ΔFosB) | migration of BAEC toward VEGF-A165 (BAEC) | serum-inducible endothelial proliferation (xCELLigence cell index) (HMEC-1 [4]) | also measured
9 | COc1cccc(-c2cc(=O)c3ccccc3o2)c1N [PD98059, reference compound] | bound to both His-MEK1 and His-MEK2 | bound to both His-MEK1 and His-MEK2 |  |  | neither BT3, nor PD98059 (allosteric MEK inhibitor), imatinib (tyrosine kinase inhibitor) or tofacitinib (Janus kinase inhibitor) had an inhibitory effect |  | IL-1β-inducible p-p38 (p-p38): no effect; IL-1β-inducible p-SAPK/JNK (p-SAPK/JNK): no effect
